# Calls of active or inactive are those of the source. The calls are words filed in the database; no cut-off is given here.
# Key:
# [1] = Cardioprotective activity in Sprague-Dawley rat cardiomyocytes assessed as prevention of hypoxia/reoxygenation-induced collapse of state 3 respiration in presence of 100 uM ADP; type: functional, cell-based; settings: Cardiac muscle cell
# [2] = Reduction of ouabain-induced mitochondrial calcium flux in Sprague-Dawley rat cardiomyocytes at 10 uM after 15 mins by Rhod 2AM staining relative to control; type: functional, Cardiac muscle cell; parameters: scale not given: the % may be the effect or the level left
# Heart = experiment: Cardioprotective activity in Sprague-Dawley rat heart assessed as reduction of hypoxia/reoxygenation-induced infarct size at 10 uM treated 30 mins before reoxygenation by triphenyltetrazolium chloride staining (reference value: 42.10 +/- 7.36%); type: functional; parameters: scale not given: the % may be the effect or the level left
# Rattus norvegicus = species on record: Rattus norvegicus; experiment: Inhibition of calcium-induced cardiac mitochondria swelling in Sprague-Dawley rat at 1 uM after 10 mins; type: functional; settings: Heart
# [3] = Cardioprotective activity in Sprague-Dawley rat cardiomyocytes assessed as reduction of hypoxia/reoxygenation-induced mitochondrial calcium flux at 10 uM after 15 mins by Rhod 2AM staining relative to control; type: functional, cell-based; parameters: scale not given: the % may be the effect or the level left; settings: Cardiac muscle cell
# [4] = Cardioprotective activity in Sprague-Dawley rat cardiomyocytes assessed as reduction of hypoxia/reoxygenation-induced mitochondrial superoxide level at 10 uM after 15 mins by MitoSOX red staining relative to control; type: functional, cell-based; parameters: scale not given: the % may be the effect or the level left; settings: Cardiac muscle cell
smiles,measurement,setting,value
Oc1ccc(-c2ccc3cc(O)ccc3c2)c(O)c1,Activity,[1],Active
same,Activity,[2],111.82%
same,Activity,Heart,3.92%
same,inhibition,Rattus norvegicus,Active
same,Activity,[3],168%
same,Activity,[4],98.1%

# Reference: ChEMBL document CHEMBL2401629, “HS-1793, a recently developed resveratrol analogue protects rat heart against hypoxia/reoxygenation injury via attenuating mitochondrial damage” (2013)
